Consider six compounds from ChEMBL document CHEMBL1131520, “A novel (benzodifuranyl)aminoalkane with extremely potent activity at the 5-HT2A receptor” (J Med Chem, 1998).

Structures are written as SMILES.

Assay [1] has as its target 5-hydroxytryptamine receptor 2A (Rattus norvegicus, UniProt P14842). The assay can be described thus: […] measured for 5-hydroxytryptamine 2A receptor using [3H]-MDL- 100,907 as radioligand in rat cortical homogenates. The class given is tissue-based.
In assay [2] the target is 5-hydroxytryptamine receptor 2B (Homo sapiens, UniProt P41595). The assay can be described thus: Binding activity against cloned human 5-hydroxytryptamine 2B receptor using [3H]5-HT as the radioligand.
Assay [3] concerns the target T1, 5-hydroxytryptamine receptor 2C (Homo sapiens, UniProt P28335).
T1 sequence (P28335 whole entry): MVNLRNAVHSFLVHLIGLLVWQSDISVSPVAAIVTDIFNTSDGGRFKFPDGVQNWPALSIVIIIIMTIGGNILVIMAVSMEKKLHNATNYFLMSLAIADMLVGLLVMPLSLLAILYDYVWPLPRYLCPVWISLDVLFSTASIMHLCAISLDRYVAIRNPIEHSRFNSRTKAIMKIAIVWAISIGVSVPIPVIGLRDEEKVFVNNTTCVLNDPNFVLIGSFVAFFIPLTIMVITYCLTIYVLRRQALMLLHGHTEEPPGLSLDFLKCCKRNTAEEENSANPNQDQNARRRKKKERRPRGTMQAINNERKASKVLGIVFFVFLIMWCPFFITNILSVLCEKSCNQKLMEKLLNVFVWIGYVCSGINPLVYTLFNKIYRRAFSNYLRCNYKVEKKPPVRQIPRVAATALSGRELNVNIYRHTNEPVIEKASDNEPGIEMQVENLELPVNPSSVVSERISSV
As to the kind of experiment: Binding activity against cloned human 5-hydroxytryptamine 2C receptor using [125I]DOI as the radioligand.

The species named for assay [4] is Rattus norvegicus. The assay can be described thus: Drug discrimination studies in rats(12) expressed as ED50 value. The class given is functional.
The species named for assay [5] is Rattus norvegicus. As to the kind of experiment: Drug discrimination studies in rats(7-15) expressed as ED50 value. The assay is classed as functional.
Assay [6] is filed under the species Rattus norvegicus. As to the kind of experiment: Drug discrimination studies in rats(22) expressed as ED50 values. The class given is functional.
Assay [7] addresses 5-hydroxytryptamine receptor 2A (Homo sapiens, UniProt P28223). The assay can be described thus: Binding activity against cloned human 5-hydroxytryptamine 2A receptor using [125I]DOI as the radioligand.
Assay [8] is filed under the species Rattus norvegicus. As to the kind of experiment: Drug discrimination studies in rats(16-19) expressed as ED50 value. The assay is classed as functional.
The species named for assay [9] is Rattus norvegicus. As to the kind of experiment: Drug discrimination studies in rats(9-12) expressed as ED50 value. The assay is classed as functional.

5-hydroxytryptamine receptor 2A (Rattus norvegicus, UniProt P14842), sequence (P14842 whole entry): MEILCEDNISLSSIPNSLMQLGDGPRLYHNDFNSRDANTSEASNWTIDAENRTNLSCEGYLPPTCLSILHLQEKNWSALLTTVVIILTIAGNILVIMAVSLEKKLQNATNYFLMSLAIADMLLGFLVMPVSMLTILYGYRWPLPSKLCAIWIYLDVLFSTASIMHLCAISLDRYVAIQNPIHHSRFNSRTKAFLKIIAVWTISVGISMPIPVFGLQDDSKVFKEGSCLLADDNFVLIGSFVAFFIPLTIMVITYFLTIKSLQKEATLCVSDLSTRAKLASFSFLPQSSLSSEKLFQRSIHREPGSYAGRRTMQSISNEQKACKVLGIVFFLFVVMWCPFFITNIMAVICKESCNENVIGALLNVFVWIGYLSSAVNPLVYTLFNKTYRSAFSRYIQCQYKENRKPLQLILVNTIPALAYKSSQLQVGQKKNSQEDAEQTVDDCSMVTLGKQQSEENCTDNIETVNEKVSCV
5-hydroxytryptamine receptor 2B, sequence (P41595 whole entry): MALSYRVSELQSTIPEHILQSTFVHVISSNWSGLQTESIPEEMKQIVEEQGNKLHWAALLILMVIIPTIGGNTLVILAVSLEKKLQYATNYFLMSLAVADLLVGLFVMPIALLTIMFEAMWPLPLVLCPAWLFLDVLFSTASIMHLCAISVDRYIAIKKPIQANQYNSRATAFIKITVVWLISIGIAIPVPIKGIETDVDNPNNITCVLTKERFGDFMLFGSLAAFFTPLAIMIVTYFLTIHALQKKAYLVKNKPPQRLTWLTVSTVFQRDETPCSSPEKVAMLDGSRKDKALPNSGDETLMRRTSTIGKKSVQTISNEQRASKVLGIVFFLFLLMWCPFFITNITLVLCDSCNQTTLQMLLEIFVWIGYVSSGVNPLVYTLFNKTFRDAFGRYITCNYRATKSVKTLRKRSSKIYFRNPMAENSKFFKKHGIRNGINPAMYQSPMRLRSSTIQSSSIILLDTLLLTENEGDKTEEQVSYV
5-hydroxytryptamine receptor 2A (Homo sapiens, UniProt P28223), sequence (P28223 whole entry): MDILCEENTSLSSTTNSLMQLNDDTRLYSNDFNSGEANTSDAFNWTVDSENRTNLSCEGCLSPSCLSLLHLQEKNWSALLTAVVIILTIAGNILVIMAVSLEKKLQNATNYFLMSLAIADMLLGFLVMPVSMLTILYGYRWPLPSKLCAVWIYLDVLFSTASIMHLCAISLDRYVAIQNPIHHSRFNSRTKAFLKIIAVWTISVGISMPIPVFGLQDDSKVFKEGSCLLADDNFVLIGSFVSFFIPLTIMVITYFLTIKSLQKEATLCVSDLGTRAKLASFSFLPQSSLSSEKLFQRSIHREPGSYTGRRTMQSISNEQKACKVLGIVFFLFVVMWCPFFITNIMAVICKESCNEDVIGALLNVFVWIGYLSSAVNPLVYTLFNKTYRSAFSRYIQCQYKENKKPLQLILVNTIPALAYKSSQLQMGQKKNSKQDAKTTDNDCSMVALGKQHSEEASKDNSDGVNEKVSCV

`CC(N)Cc1c2ccoc2c(Br)c2ccoc12` (configuration not stated): the Ki (usually a measure of affinity in units of concentration, obtained from inhibition or displacement) in assay [1] was found to be 0.23 nM.
As for `COc1cc(CC(C)N)c(OC)cc1I` (configuration not stated), the inhibition constant (Ki) in assay [2] worked out at 42.7 nM; in assay [3], 1.82 nM. Further, it took a dose of 0.3 µmol/kg to reach the 50% effect level in the assay listed under Rattus norvegicus [4] (ED50).
Take `CC(N)Cc1c2c(c(Br)c3c1OCC3)OCC2` (racemic): in the assay listed under Rattus norvegicus [5], the ED50 – broadly, the dose that gives a 50% effect, or the effect in half of the subjects – stood at 0.061 µmol/kg.
On to `CCN(CC)C(=O)[C@@H]1C=C2c3cccc4[nH]cc(c34)C[C@H]2N(C)C1` [LYSERGIDE], for which the ED50 in the assay filed under Rattus norvegicus [6] turned out to be 0.04 µmol/kg.
On to `CC(N)Cc1c2ccoc2c(Br)c2ccoc12` (racemic), for which the inhibition constant (Ki) amounted to 0.04 nM in [7], 0.19 nM in assay [2] and 0.02 nM in assay [3]. Further, the ED50 in the assay filed under Rattus norvegicus [8] amounted to 0.022 µmol/kg; in the assay filed under Rattus norvegicus [9] it was 0.039 µmol/kg.
Turning to `CC(N)Cc1c2c(c(Br)c3c1OCC3)OCC2` (configuration not stated), the Ki in assay [1] is 14.8 nM.
